# Experimental data taken from PMC10609081, “In Vivo Trafficking of the Anticancer Drug Tris(8-Quinolinolato) Gallium (III) (KP46) by Gallium-68/67 PET/SPECT Imaging” (Molecules, 2023).
# Like-named read-outs stand apart in the source and are kept apart here.
# Tests used:
# [1] = target: T1, human apo-transferrin (apo-Tf) (Homo sapiens, UniProt P02787); experiment: Binding to apo-transferrin by size exclusion chromatography (PD MidiTrap G-25); type: in vitro ADME; conditions: incubated with apo-Tf in the presence of bicarbonate, sampled over 48 h
# T1 construct: purchased Sigma Aldrich
# Description: Solutions of human apo-transferrin (apo-Tf, 2 mg/mL) and human serum albumin (HSA, 50 mg/mL) (both purchased from Sigma Aldrich) were dissolved in aqueous NaHCO3 (5 mM, pH = 8) and PBS (pH = 7.4), respectively. An amount of 1 MBq of tracer-level [^68Ga]KP46 (13–20 µL) or [^68Ga]gallium acetate (20–25 µL) was added to 1.2 mL of the apo-Tf solution and to a similar apo-Tf-free NaHCO3 solution (control). Similarly, [^68Ga]KP46 and [^68Ga]gallium acetate solutions were added to 1.5 mL PBS containing HSA or HSA-free PBS (control). The samples were incubated for 60 min at 37 °C (pH = 7–7.5). From each mixture, 0.5 mL was loaded into PD MidiTrap G-25 size exclusion chromatography cartridges that were preconditioned with 8 mL of NaHCO3 (5 mM) (for apo-Tf binding) or PBS (for HSA binding). Fractions (0.5 mL) were collected and counted with a Wallac gamma counter. Protein absorbance at 280 nm was measured using a Nanodrop spectrophotometer. To investigate the speciation of the Ga–KP46 complex in the presence of apo-Tf at later time points (up to 48 h), the experiment was repeated with ^67Ga.
# [2] = Octanol extraction of serum, urine and gut contents after oral radiolabelled KP46 (speciation); type: in vivo, mice; conditions: oral, tracer level (group E), 24 h
# Description: Serum and urine from the “tracer level” group (E) were subjected to octanol extraction 24 h postadministration to determine the fraction of ^67Ga that may have survived in the form of [^67Ga]KP46 after absorption from the gut.
# Oral [^68/67Ga]KP46: The protocol for oral administration experiments reported here was devised on the basis of pilot experiments described in Supplementary Materials (Figure S12). For short-term (up to 4 h) studies with ^68Ga, awake (nonanaesthetised, to avoid suppressive effects of anaesthesia on digestive tract activity) mice that had been fasted for up to 14 h were given [^68Ga]KP46 (5–13 MBq) (group C, “tracer”, n = 3) or [^68Ga]KP46 and KP46 (5–8.5 MBq) (group D, “bulk”, n = 3) by oral gavage. The dose given orally to group D animals, prepared as described above, was 0.4 μmol in 400 μL, molar activity ca. 25 MBq/μmol. The mice were fasted for three hours before being anaesthetised and PET/CT scanned dynamically for one hour (see below for scanning protocol). After scanning, mice in both groups were culled by neck dislocation while still anaesthetised four hours post-oral administration for organ harvesting and gamma counting. Samples of blood, urine and contents of stomach, small intestine and large intestine (the organs/tissue with measurable activity; tumours were not included as they were insufficiently radioactive) from the mice in group C were used for octanol extraction (shake-flask method) to separate water-soluble (released) and lipid-soluble (intact KP46) ^68Ga. Serum samples were prepared by placing blood samples in a serum separator tube (brand VS367954, Fisher Scientific Ltd., Loughborough, UK) and centrifuging at 3000 rpm for 10 min. Serum (200–300 µL) and urine samples (150–180 µL, taken from the excised bladders) were directly added to Eppendorf tubes containing a pre-equilibrated mixture of octanol (500 µL) and water (500 µL). The tubes were vortexed for two minutes on a Multi Vortex Mixer V-32 (Grant Bio). After separation of layers, a sample of 400 µL from each layer was transferred to fresh Eppendorf tubes and analysed with a gamma counter. Stomach content (72–77 mg), small intestine content (35–88 mg), and large intestine content (86–100 mg) samples from each mouse were analysed similarly by adding them directly to Eppendorf tubes containing a pre-equilibrated mixture of octanol (500 µL) and water (500 µL) before vortexing and centrifuging at 10,000 rpm for 10 min at 4 °C. From each layer, 430 µL was transferred to fresh Eppendorf tubes and analysed with a gamma counter; the solid residues were also counted. Tissues from mice in group D were used after radioactive decay for measurements of nonradioactive ^69Ga content.
# [3] = SPECT imaging and ex vivo biodistribution 24 h and 48 h after oral [67Ga]KP46, tracer (group E) and bulk (group F); type: in vivo, mice; conditions: n = 4
# Description: The tracer-level samples for oral administration were prepared in the same manner but with 20 μL of KP46-free DMSO in place of the KP46 solution in DMSO.
# All animal experiments were performed in accordance with the Animals (Scientific Procedures) Act, 1986, with protocols approved by the Animal Welfare and Ethical Review Body for King’s College London under project and personal licences approved by the UK Home Office. Tumour xenograft studies were performed on female NSG mice or female athymic nude mice after injecting them subcutaneously in the right shoulder with 2.5 × 10^6 A375 cells in 100 µL of PBS. All in vivo studies were conducted between 14 and 24 days after inoculation, with tumour volumes between 100 mm^3 and 580 mm^3 (see Supplementary Materials, Figure S11).
# For long-term (up to 48 h) studies, a similar protocol was followed, but SPECT imaging using ^67Ga was repeated at intervals up to 48 h instead of PET imaging up to only 4 h postadministration. Athymic nude nu/nu mice bearing A375 xenografts were fasted for 7–14 h and divided in two groups: E (n = 4) and F (n = 4). Awake (nonanaesthetised) mice were orally administered with [^67Ga]KP46 (2–11 MBq, “tracer”, group E) or with [^67Ga]KP46 and KP46 (1–11 MBq, “bulk”, group F, given 0.4 μmol KP46 with molar activity ca. 15 MBq/μmol) and fasted for three hours. Mice in both groups were then anaesthetised and SPECT/CT scanned (see scanning protocol below) for one hour. Mice were then allowed to recover and feed. At 24 h postadministration, mice were reanaesthetised and rescanned, then group E mice were culled while still anaesthetised, and tissues were harvested for ex vivo gamma counting.
# PET/CT images were acquired with a nanoScan® PET/CT (Mediso Medical Imaging Systems, Budapest, Hungary) scanner operating in list mode using a 400–600 keV energy window and a coincidence window of 1:3. CT scans were acquired for anatomical reference and attenuation correction (55 keV X-ray, exposure time 1000 ms, and 360 projections and pitch 1). PET projection data were reconstructed using the Tera-tomo® software package provided with the scanner —a Monte Carlo-based fully 3D iterative algorithm with four iterations, six subsets, and 0.4 mm isotropic voxel size; corrections for attenuation, scatter, and dead-time were enabled. The data were then visualised and quantified using VivoQuant^© v.2.50 (InviCro, Boston, MA, USA) software. SPECT/CT imaging was performed on a NanoSPECT/CT Silver Upgrade scanner (Mediso; 4 heads, 4 × 9 1.0 mm multipinhole collimators) in helical scanning mode using energy windows centred around 93.20 ± 20% keV (primary), 184.60 ± 20% keV (secondary), and 300.00 ± 20% keV (tertiary). […] Images were coregistered and analysed using VivoQuant v2.50 (InviCro, Needham, MA, USA).
# [4] = single oral administration with bulk gallium chloride (100 nmol), after five days; cited from earlier work
# [5] = Distribution/partition coefficients (logD, logP), shake flask with gamma counting; type: physicochemical; conditions: octanol/water, tracer level, mean ± SD
# Description: Tracer-level [^68Ga]KP46 and [^68Ga]Ga-acetate solutions (5–20 µL, 0.3–0.5 MBq) were added to a pre-equilibrated mixture (500 µL/500 µL) of octanol/water (for logP measurement) or octanol/PBS (for logD7.4 measurement). Samples were vortexed for two minutes in a Multi Vortex Mixer V-32 (Grant Bio). From each layer, a sample of 200 µL was taken and its radioactivity measured using a gamma counter.
# [6] = ICP-MS analysis of 69Ga in tissues after oral bulk dose; type: in vivo, mice; conditions: bulk (group D), 4 h
# Description: Oral [^68/67Ga]KP46: The protocol for oral administration experiments reported here was devised on the basis of pilot experiments described in Supplementary Materials (Figure S12). For short-term (up to 4 h) studies with ^68Ga, awake (nonanaesthetised, to avoid suppressive effects of anaesthesia on digestive tract activity) mice that had been fasted for up to 14 h were given [^68Ga]KP46 (5–13 MBq) (group C, “tracer”, n = 3) or [^68Ga]KP46 and KP46 (5–8.5 MBq) (group D, “bulk”, n = 3) by oral gavage. The dose given orally to group D animals, prepared as described above, was 0.4 μmol in 400 μL, molar activity ca. 25 MBq/μmol. […] After separation of layers, a sample of 400 µL from each layer was transferred to fresh Eppendorf tubes and analysed with a gamma counter. Stomach content (72–77 mg), small intestine content (35–88 mg), and large intestine content (86–100 mg) samples from each mouse were analysed similarly by adding them directly to Eppendorf tubes containing a pre-equilibrated mixture of octanol (500 µL) and water (500 µL) before vortexing and centrifuging at 10,000 rpm for 10 min at 4 °C. From each layer, 430 µL was transferred to fresh Eppendorf tubes and analysed with a gamma counter; the solid residues were also counted. […]
# expressed as mean ± SD (n = 3). […]
# [7] = set-up: method as in PMID 16938349, PMID 21305117; conditions: bulk drug, spectrophotometric; cited from earlier work
# [8] = set-up: method as in PMID 8687115; conditions: healthy mice, 2 weeks daily oral doses; cited from earlier work
# T1 sequence (P02787 20-698): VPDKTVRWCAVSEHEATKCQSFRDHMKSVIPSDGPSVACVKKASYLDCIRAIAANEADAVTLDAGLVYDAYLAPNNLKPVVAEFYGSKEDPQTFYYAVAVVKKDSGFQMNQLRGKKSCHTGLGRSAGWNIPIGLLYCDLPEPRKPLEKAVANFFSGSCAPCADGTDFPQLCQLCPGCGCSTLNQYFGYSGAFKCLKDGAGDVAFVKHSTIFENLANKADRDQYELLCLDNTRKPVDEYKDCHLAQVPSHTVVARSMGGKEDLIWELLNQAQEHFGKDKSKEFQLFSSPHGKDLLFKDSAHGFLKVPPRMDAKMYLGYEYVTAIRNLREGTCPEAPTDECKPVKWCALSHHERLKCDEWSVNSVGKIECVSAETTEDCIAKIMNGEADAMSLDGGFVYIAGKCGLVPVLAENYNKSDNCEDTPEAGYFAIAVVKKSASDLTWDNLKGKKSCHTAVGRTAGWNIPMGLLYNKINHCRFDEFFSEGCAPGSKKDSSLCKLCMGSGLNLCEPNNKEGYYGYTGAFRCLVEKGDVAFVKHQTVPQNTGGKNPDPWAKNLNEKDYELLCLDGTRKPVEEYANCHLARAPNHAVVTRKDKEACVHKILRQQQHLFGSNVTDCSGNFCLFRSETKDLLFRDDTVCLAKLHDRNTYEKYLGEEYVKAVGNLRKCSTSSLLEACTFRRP
smiles,measurement,setting,value
[67Ga+3].[O-]c1cccc2cccnc12.[O-]c1cccc2cccnc12.[O-]c1cccc2cccnc12 [[^67Ga]KP46],binding of 67Ga to apo-Tf,[1],very minor binding
same,serum radioactivity extracted into octanol phase,[2],Less than 6%
same,urine activity extracted into octanol phase,[2],less than 3%
same,"uptake in bone, ex vivo","[3]; bulk level (group F), 48 h",2.55 ± 1.82 %ID/g
same,"uptake in liver, ex vivo","[3]; bulk level (group F), 48 h",1.34 ± 1.01 %ID/g
same,"uptake in tumour, ex vivo","[3]; bulk level (group F), 48 h",1.57 ± 0.48 %ID/g
same,"activity in faeces, ex vivo","[3]; tracer level (group E), 24 h",3.0 ± 2.9 %ID/g
O=C([O-])CC(O)(CC(=O)[O-])C(=O)[O-].[67Ga+3] [[^67Ga]gallium citrate],original measured activity remaining in the mice,[4],0.3 ± 0.08%
"[Ga+3].[O-]c1cccc2cccnc12.[O-]c1cccc2cccnc12.[O-]c1cccc2cccnc12 [KP46, tris(8-quinolinolato)gallium (III)]",logP(octanol/water),[5],2.33 ± 0.28
same,69Ga delivered to tumour by ICP-MS,[6],0.17 ± 0.1 %ID/g
same,69Ga in large intestine by ICP-MS,[6],23.7 ± 9.2 %ID/g
same,logP(octanol/water),[7],0.88
same,accumulation of gallium in liver,[8],0.08 ± 0.04 %ID/g
